Experimental findings from publication PMC4700511 (Biochemistry, 2015) are described below.

SMILES strings stand for the structures. Converted amounts (≈) assume the structure as drawn. Where only a bound is given, the exact number is not on record here.

The subject of assay [1] is E. coli DH10B pBCSK(−) producing R228Y. Put plainly: MIC by agar dilution, E. coli DH10B pBCSK. The format is cell-based. As to conditions: Escherichia coli. (In agar dilution, organisms are placed on agar that contains the substance at set levels.)
Another assay concerns the target VIM-2 (Escherichia coli, UniProt Q5U7L7). Put plainly: Hydrolysis of cefepime and ceftazidime by periplasm preparations, VIM-2. The format is biochemical, P. aeruginosa. The following applies: VIM-2 periplasmic preparation.
Assay [2] has as its target T1, VIM-24 (Escherichia coli, UniProt Q5U7L7, R205L). Put plainly: Hydrolysis of cefepime and ceftazidime by periplasm preparations, VIM-24. It is filed as biochemical, Klebsiella pneumoniae. As to conditions: VIM-24 periplasmic preparation.
Assay [3] deals with E. coli DH10B pBCSK(−) producing R228M. Put plainly: MIC by agar dilution, E. coli DH10B pBCSK. It is filed as cell-based. As to conditions: Escherichia coli.
In assay [4] the test system is E. coli DH10B pBCSK(−) producing R228Q. In words: MIC by agar dilution, E. coli DH10B pBCSK. It is filed as cell-based. As to conditions: Escherichia coli.
The test system of assay [5] is E. coli DH10B pBCSK(−) producing VIM-24 (R228L). Put plainly: MIC by agar dilution, E. coli DH10B pBCSK. The following applies: Escherichia coli. The format is cell-based.
The subject of assay [6] is E. coli DH10B pBCSK(−) producing VIM-2 (228R). In words: MIC by agar dilution, E. coli DH10B pBCSK. The format is cell-based. As to conditions: Escherichia coli.
Assay [7] relates to E. coli DH10B pBCSK(−) producing R228K. Put plainly: MIC by agar dilution, E. coli DH10B pBCSK. It is filed as cell-based. The following applies: Escherichia coli.
Assay [8] deals with E. coli DH10B pBCSK(−) producing R228X (other variants). In words: MIC by agar dilution, E. coli DH10B pBCSK. The format is cell-based. As to conditions: Escherichia coli, R228X: range of MIC values of the other variants; MHA.
For a further assay, the system named is E. coli pBC SK(−). In words: MIC by agar dilution, E. coli DH10B with empty pBC SK. The following applies: Escherichia coli. The format is cell-based.
Assay [9] relates to E. coli DH10B pBCSK(−) producing R228P. In words: MIC by agar dilution, E. coli DH10B pBCSK. It is filed as cell-based. As to conditions: Escherichia coli.
The subject of assay [10] is VIM-24-producing K. pneumoniae. In words: Imipenem MIC of the clinical isolate, VIM-24-producing K. pneumoniae. It is filed as cell-based. As to conditions: Klebsiella pneumoniae, read-out: imipenem MIC, VIM-24-producing K. pneumoniae.
The target in assay [11] is T1, VIM-24. The format is biochemical, Klebsiella pneumoniae. The following applies: VIM-24; substrate hydrolysis, 10 mM HEPES pH 7.5, 25 °C.
The subject of assay [12] is VIM-2-producing P. aeruginosa. In words: Imipenem MIC of the clinical isolate, VIM-2-producing P. aeruginosa. The format is cell-based, Pseudomonas aeruginosa.
The test system of assay [13] is VIM-24. It is filed as biochemical, Klebsiella pneumoniae. As to conditions: VIM-24 (R228L) vs VIM-2.

The MIC is the lowest concentration that inhibits growth of the organism. With `CO/N=C(\C(=O)N[C@@H]1C(=O)N2C(C(=O)[O-])=C(C[N+]3(C)CCCC3)CS[C@H]12)c1csc(N)n1` [cefepime], the minimal inhibitory concentration (MIC) in assay [1] (MHA) amounted to 8 µg/mL (≈ 16.6 µM); in [1] (MHA + 5 μM EDTA), 8 µg/mL; in [1] (MHA + 250 μM Zn^2+), 8 µg/mL; in assay [3] (MHA), 2 µg/mL (≈ 4.16 µM); in assay [3] (MHA + 5 μM EDTA) it was 4 µg/mL; in [3] (MHA + 250 μM Zn^2+), 2 µg/mL. Also, the MIC in assay [4] (MHA) was 16 µg/mL (≈ 33.3 µM); in assay [4] (MHA + 5 μM EDTA), 16 µg/mL; in assay [4] (MHA + 250 μM Zn^2+), 32 µg/mL; in assay [5] (MHA), 4 µg/mL (≈ 8.32 µM); in assay [5] (MHA + 5 μM EDTA) it was 4 µg/mL; in assay [5] (MHA + 250 μM Zn^2+) it was 4 µg/mL. Besides, the MIC in assay [6] (MHA) was at most 0.5 µg/mL; in [6] (MHA + 5 μM EDTA), 0.5 µg/mL; in assay [6] (MHA + 250 μM Zn^2+), 0.5 µg/mL; in assay [7] (MHA), 0.5 µg/mL (≈ 1.04 µM); in assay [7] (MHA + 5 μM EDTA) it was at most 0.25 µg/mL; in assay [7] (MHA + 250 μM Zn^2+), at most 0.25 µg/mL. Also, the MIC is 1 to 4 µg/mL (≈ 2.08 to 8.32 µM) in assay [8]; 0.03 µg/mL (≈ 0.0624 µM) in the assay on E. coli pBC SK(−) (MHA); at most 0.25 µg/mL in the assay with E. coli pBC SK(−) (MHA + 5 μM EDTA); at most 0.25 µg/mL in the assay with E. coli pBC SK(−) (MHA + 250 μM Zn^2+); 0.25 µg/mL (≈ 0.52 µM) in assay [9] (MHA); at most 0.25 µg/mL in assay [9] (MHA + 5 μM EDTA). Besides, the MIC in assay [9] (MHA + 250 μM Zn^2+) was 0.5 µg/mL. Moreover, the “rate of hydrolysis (initial velocity) in periplasm” value at VIM-2 (800 μM cefepime) came out at 2.9e-07 M/s; on VIM-24 [2] (800 μM cefepime), 5.3e-07 M/s.

`CO/N=C(\C(=O)N[C@@H]1C(=O)N2C(C(=O)O)=C(CSc3nc(=O)c(=O)[nH]n3C)CS[C@H]12)c1csc(N)n1` [ceftriaxone]: the MIC amounted to 16 µg/mL (≈ 28.9 µM) in [1] (MHA); 16 µg/mL (≈ 28.9 µM) in assay [3] (MHA); 32 µg/mL (≈ 57.7 µM) in assay [4] (MHA); 8 µg/mL (≈ 14.4 µM) in assay [5] (MHA); 8 µg/mL (≈ 14.4 µM) in assay [6] (MHA); 1 µg/mL (≈ 1.8 µM) in [7] (MHA). Besides, the MIC in assay [8] is 1 to 16 µg/mL (≈ 1.8 to 28.9 µM); against E. coli pBC SK(−) (MHA), 0.5 µg/mL (≈ 0.902 µM); in assay [9] (MHA) it was 0.5 µg/mL (≈ 0.902 µM).

What is called Km is the concentration of substrate that gives half-maximal velocity. A word on the kcat: it is the number of substrate molecules converted per active site and unit of time at saturation. Consider `C[C@@H](O)[C@H]1C(=O)N2C(C(=O)O)=C(SCCN=CN)C[C@H]12` [imipenem], for which the MIC in assay [1] (MHA) amounted to 1 µg/mL (≈ 3.34 µM); in [1] (MHA + 5 μM EDTA), 1 µg/mL; in [1] (MHA + 250 μM Zn^2+) it was 1 µg/mL; in [3] (MHA), 2 µg/mL (≈ 6.68 µM); in assay [3] (MHA + 5 μM EDTA) it was 1 µg/mL; in [3] (MHA + 250 μM Zn^2+), 4 µg/mL. The minimal inhibitory concentration (MIC) in [10] is 2 µg/mL; in assay [4] (MHA), 4 µg/mL (≈ 13.4 µM); in assay [4] (MHA + 5 μM EDTA), 4 µg/mL; in assay [4] (MHA + 250 μM Zn^2+) it was above 4 µg/mL; in [5] (MHA), 0.5 µg/mL (≈ 1.67 µM); in assay [5] (MHA + 5 μM EDTA) it was 0.5 µg/mL. For the same compound, the MIC in [5] (MHA + 250 μM Zn^2+) turned out to be 1 µg/mL; in [6] (MHA), 0.5 µg/mL (≈ 1.67 µM); in assay [6] (MHA + 5 μM EDTA) it was 0.5 µg/mL; in assay [6] (MHA + 250 μM Zn^2+), 1 µg/mL; in assay [7] (MHA), 0.25 µg/mL (≈ 0.835 µM); in assay [7] (MHA + 5 μM EDTA), 0.25 µg/mL. In addition, the minimum inhibitory concentration (MIC) in [7] (MHA + 250 μM Zn^2+) was 0.25 µg/mL; in assay [12] (Pseudomonas aeruginosa, read-out: imipenem MIC), 32 µg/mL; in assay [8], 0.25 to 1 µg/mL (≈ 0.835 to 3.34 µM); against E. coli pBC SK(−) (MHA), 0.25 µg/mL (≈ 0.835 µM); in the assay with E. coli pBC SK(−) (MHA + 5 μM EDTA), at most 0.125 µg/mL; in the assay with E. coli pBC SK(−) (MHA + 250 μM Zn^2+), 0.25 µg/mL. For the same compound, the MIC was 0.5 µg/mL (≈ 1.67 µM) in [9] (MHA), at most 0.125 µg/mL in assay [9] (MHA + 5 μM EDTA) and 0.25 µg/mL in [9] (MHA + 250 μM Zn^2+). For the same compound, at VIM-24 [11], the Km came out at 5 ± 0.7 µM. In addition, the catalytic constant (kcat) at VIM-24 [11] turned out to be 8.8 ± 0.3 s⁻¹. Besides, the “imipenem MIC” value in [12] (VIM-2 harboring P. aeruginosa clinical isolate) amounted to 32 µg/mL.

Regarding `CC(C)(O/N=C(\C(=O)N[C@@H]1C(=O)N2C(C(=O)[O-])=C(C[n+]3ccccc3)CS[C@H]12)c1csc(N)n1)C(=O)O` [ceftazidime], the MIC in [1] (MHA) came to 64 µg/mL (≈ 117 µM); in assay [1] (MHA + 5 μM EDTA), 64 µg/mL; in [1] (MHA + 250 μM Zn^2+), 128 µg/mL; in assay [3] (MHA), 128 µg/mL (≈ 234 µM); in assay [3] (MHA + 5 μM EDTA), 64 µg/mL; in [3] (MHA + 250 μM Zn^2+), 256 µg/mL. Further, the MIC was 128 µg/mL (≈ 234 µM) in assay [4] (MHA); 128 µg/mL in [4] (MHA + 5 μM EDTA); 512 µg/mL in assay [4] (MHA + 250 μM Zn^2+); 64 µg/mL (≈ 117 µM) in assay [5] (MHA); 32 µg/mL in assay [5] (MHA + 5 μM EDTA); 128 µg/mL in assay [5] (MHA + 250 μM Zn^2+). For the same compound, the minimal inhibitory concentration (MIC) was 16 µg/mL (≈ 29.3 µM) in assay [6] (MHA); 16 µg/mL in [6] (MHA + 5 μM EDTA); 32 µg/mL in assay [6] (MHA + 250 μM Zn^2+); 1 µg/mL (≈ 1.83 µM) in [7] (MHA); at most 1 µg/mL in assay [7] (MHA + 5 μM EDTA); at most 1 µg/mL in assay [7] (MHA + 250 μM Zn^2+). In addition, the MIC was 16 to 128 µg/mL (≈ 29.3 to 234 µM) in assay [8]; 0.06 µg/mL (≈ 0.11 µM) against E. coli pBC SK(−) (MHA); at most 1 µg/mL with E. coli pBC SK(−) (MHA + 5 μM EDTA); at most 1 µg/mL in the assay with E. coli pBC SK(−) (MHA + 250 μM Zn^2+); 1 µg/mL (≈ 1.83 µM) in assay [9] (MHA); at most 1 µg/mL in assay [9] (MHA + 5 μM EDTA). Besides, the minimum inhibitory concentration (MIC) in [9] (MHA + 250 μM Zn^2+) worked out at 4 µg/mL. The “rate of hydrolysis (initial velocity) in periplasm” value at VIM-2 (400 μM ceftazidime) was “measurable rates of hydrolysis were not obtained”; on VIM-24 [2] (400 μM ceftazidime), 4e-07 M/s. Moreover, in the assay on VIM-24 [13], the “kcat/KM increase of VIM-24 compared to VIM-2” value worked out at 6 fold.

On to `CC(=O)OCC1=C(C(=O)O)N2C(=O)[C@@H](NC(=O)Cc3cccs3)[C@H]2SC1` [cephalothin], for which the MIC in [1] (MHA) was determined as 256 µg/mL (≈ 646 µM); in assay [3] (MHA), 256 µg/mL (≈ 646 µM); in assay [4] (MHA) it was 1020 µg/mL (≈ 2580 µM); in assay [5] (MHA) it was 256 µg/mL (≈ 646 µM); in assay [6] (MHA) it was 256 µg/mL (≈ 646 µM); in assay [7] (MHA), 16 µg/mL (≈ 40.4 µM). Further, the values for the MIC (in assay [8]; in the assay with E. coli pBC SK(−) (MHA); in assay [9] (MHA)) were 64 to 256 µg/mL (≈ 161 to 646 µM), 8 µg/mL (≈ 20.2 µM) and 16 µg/mL (≈ 40.4 µM), respectively. Besides, the kcat on VIM-24 [11] was 150 ± 9 s⁻¹.

As to `CO/N=C(\C(=O)N[C@@H]1C(=O)N2C(C(=O)O)=C(COC(C)=O)CS[C@H]12)c1csc(N)n1` [cefotaxime], the minimum inhibitory concentration (MIC) came out at 16 µg/mL (≈ 35.1 µM) in assay [1] (MHA); 16 µg/mL (≈ 35.1 µM) in assay [3] (MHA); 32 µg/mL (≈ 70.3 µM) in assay [4] (MHA); 16 µg/mL (≈ 35.1 µM) in assay [5] (MHA); 8 µg/mL (≈ 17.6 µM) in assay [6] (MHA); 1 µg/mL (≈ 2.2 µM) in assay [7] (MHA). Further, the minimal inhibitory concentration (MIC) was 2 to 32 µg/mL (≈ 4.39 to 70.3 µM) in assay [8], 0.06 µg/mL (≈ 0.132 µM) against E. coli pBC SK(−) (MHA) and 1 µg/mL (≈ 2.2 µM) in assay [9] (MHA).
